For series [1] the following is noted: investigational studies, background; cited from earlier work.
Series [2] is described as follows: CPHPC added to solvents to the point of saturation (donor solutions). In kind it is physicochemical. The following applies: ethanolamine as solvent. The method, then: CPHC was added to the solvents listed in Table 1 below to the point of saturation: […]
Series [3] in a line: Oral delivery of CPHPC in rats, serum CPHPC concentrations. Format: in vivo. The method, then:
One group of rats were dosed by oral gavage a solution containing 200 mg/kg SNAC and 10 mg/kg CPHPC (Group 1). The dosing volume was 1 mL/kg. Two groups of rats also received, respectively, control arms of 10 mg/kg CPHPC alone via oral gavage (Group 2) and 0.2 mg/kg of CPHPC via IV (Group 3).
Serum CPHPC concentrations […]) were measured over 40 minutes.

Consider 1 compound from patent US9345722B2, “Pharmaceutical formulations for the treatment of alzheimer's disease” (EMISPHERE TECHNOLOGIES, INC., priority 2006, dated 2016).

Structures are written as SMILES.

As to `O=C(O)[C@H]1CCCN1C(=O)CCCCC(=O)N1CCC[C@@H]1C(=O)O` [CPHPC, R-1-(6-(R-2-carboxy-pyrrolidin-1-yl)-6-oxo-hexanoyl)pyrrolidine-2-carboxylic acid], the oral bioavailability entry in series [1] is on record as “poor oral bioavailability”. Further, in series [2], the “Solubility of CPHPC in ethanolamine compared with the other solvents” value is given as “much more soluble in ethanolamine”. The Serum CPHPC concentration came out at 0 ng/mL in series [3] (Group 1: 200 mg/kg SNAC and 10 mg/kg CPHPC via PO, 0 min.); 2960 ± 1210 ng/mL in series [3] (Group 1: 200 mg/kg SNAC and 10 mg/kg CPHPC via PO, 5 min.); 5480 ± 526 ng/mL in series [3] (Group 1: 200 mg/kg SNAC and 10 mg/kg CPHPC via PO, 10 min.); 2800 ± 400 ng/mL in series [3] (Group 1: 200 mg/kg SNAC and 10 mg/kg CPHPC via PO, 20 min.); 1440 ± 219 ng/mL in series [3] (Group 1: 200 mg/kg SNAC and 10 mg/kg CPHPC via PO, 40 min.); 0 ng/mL in series [3] (Group 2: 10 mg/kg CPHPC alone via PO, 0 min.). The Serum CPHPC concentration in series [3] (Group 2: 10 mg/kg CPHPC alone via PO, 5 min.) was 1060 ± 107 ng/mL; in series [3] (Group 2: 10 mg/kg CPHPC alone via PO, 10 min.), 1420 ± 171 ng/mL; in series [3] (Group 2: 10 mg/kg CPHPC alone via PO, 20 min.) it was 667 ± 97.1 ng/mL; in series [3] (Group 2: 10 mg/kg CPHPC alone via PO, 40 min.), 175 ± 15 ng/mL; in series [3] (Group 3: 0.2 mg/kg CPHPC via IV, 0 min.), 0 ng/mL; in series [3] (Group 3: 0.2 mg/kg CPHPC via IV, 5 min.) it was 223 ± 19.5 ng/mL. The Serum CPHPC concentration was determined as 229 ± 44.8 ng/mL in series [3] (Group 3: 0.2 mg/kg CPHPC via IV, 10 min.); 170 ± 26.2 ng/mL in series [3] (Group 3: 0.2 mg/kg CPHPC via IV, 20 min.); 65.4 ± 25.7 ng/mL in series [3] (Group 3: 0.2 mg/kg CPHPC via IV, 40 min.).
